According to the supplement of paper PMC10307832:

Columns and labels:
Assay in all cases: relative viability (nuclei count vs DMSO), 5 days (fraction); higher = more cells survive
IPA-3 + Vorinostat = compound: C1=CC=C2C(=C1)C=CC(=C2SSC3=C(C=CC4=CC=CC=C43)O)O [IPA-3] + O=C(CCCCCCC(=O)Nc1ccccc1)NO [Vorinostat] (partner 1 µM)
Method in brief: (§1)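 Relative viability divides the nuclei count in treated wells by that in vehicle wells. Lung cancer cell lines were seeded in 1536-well plates, dosed by pin tool the next day, and fixed and stained after 5 days in one step with final 0.05% Triton X-100, 1% formaldehyde and 1 ug/ml Hoechst. Dosing was a single drug or a fixed anchor-drug dose plus five library-drug doses (not always all listed) in √10 steps, and values are medians of duplicate plates imaged at 4×.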

RAF265 + Tozasertib = compound: Cn1c(Nc2ccc(C(F)(F)F)cc2)nc2cc(Oc3ccnc(-c4ncc(C(F)(F)F)[nH]4)c3)ccc21 [RAF265] + Cc1cc(Nc2cc(N3CCN(C)CC3)nc(Sc3ccc(NC(=O)C4CC4)cc3)n2)n[nH]1 [Tozasertib] (partner 0.1 µM)
Method in brief: as §1

RAF265 + Olaparib = compound: Cn1c(Nc2ccc(C(F)(F)F)cc2)nc2cc(Oc3ccnc(-c4ncc(C(F)(F)F)[nH]4)c3)ccc21 [RAF265] + O=C(c1cc(Cc2n[nH]c(=O)c3ccccc23)ccc1F)N1CCN(C(=O)C2CC2)CC1 [Olaparib] (partner 8 µM)
Method in brief: as §1

IPA-3 + Pemetrexed = compound: C1=CC=C2C(=C1)C=CC(=C2SSC3=C(C=CC4=CC=CC=C43)O)O [IPA-3] + Nc1nc2[nH]cc(CCc3ccc(C(=O)N[C@@H](CCC(=O)O)C(=O)O)cc3)c2c(=O)[nH]1 [Pemetrexed] (partner 0.2 µM)
Method in brief: as §1

| Cell Line | relative viability (IPA-3 + Vorinostat; first compound 0.2 µM) | relative viability (IPA-3 + Vorinostat; first compound 0.6325 µM) | relative viability (IPA-3 + Vorinostat; first compound 2 µM) | relative viability (IPA-3 + Vorinostat; first compound 6.325 µM) | relative viability (IPA-3 + Vorinostat; first compound 20 µM) | relative viability (RAF265 + Tozasertib; first compound 0.01 µM) | relative viability (RAF265 + Tozasertib; first compound 0.03162 µM) | relative viability (RAF265 + Tozasertib; first compound 0.1 µM) | relative viability (RAF265 + Tozasertib; first compound 0.3162 µM) | relative viability (RAF265 + Tozasertib; first compound 1 µM) | relative viability (RAF265 + Olaparib; first compound 0.01 µM) | relative viability (RAF265 + Olaparib; first compound 0.03162 µM) | relative viability (RAF265 + Olaparib; first compound 0.1 µM) | relative viability (RAF265 + Olaparib; first compound 0.3162 µM) | relative viability (RAF265 + Olaparib; first compound 1 µM) | relative viability (IPA-3 + Pemetrexed; first compound 0.2 µM) | relative viability (IPA-3 + Pemetrexed; first compound 0.6325 µM) | relative viability (IPA-3 + Pemetrexed; first compound 2 µM) | relative viability (IPA-3 + Pemetrexed; first compound 6.325 µM) | relative viability (IPA-3 + Pemetrexed; first compound 20 µM) |
| --- | --- | --- | --- | --- | --- | --- | --- | --- | --- | --- | --- | --- | --- | --- | --- | --- | --- | --- | --- | --- |
| NCI-H1355 | 0.69 | 0.655 | 0.595 | 0.617 | 0.657 | 0.575 | 0.515 | 0.587 | 0.47 | 0.19 | 0.814 | 0.732 | 0.694 | 0.608 | 0.31 | 1.13 | 1.08 | 1 | 1.06 | 0.945 |
| NCI-H838 | 0.776 | 0.697 | 0.75 | 0.706 | 0.794 | 0.266 | 0.283 | 0.288 | 0.311 | 0.223 | 0.829 | 0.725 | 0.752 | 0.694 | 0.594 | 0.266 | 0.236 | 0.258 | 0.271 | 0.322 |
| LK-2 | 0.321 | 0.321 | 0.429 | 0.553 | 0.506 | 0.164 | 0.166 | 0.153 | 0.178 | 0.152 | 0.794 | 0.751 | 0.769 | 0.668 | 0.512 | 0.29 | 0.255 | 0.272 | 0.287 | 0.242 |
| NCI-H1650 | 1.02 | 0.47 | 0.531 | 0.555 | 0.729 | 0.377 | 0.425 | 0.473 | 0.446 | 0.304 | 0.9 | 0.797 | 0.824 | 0.837 | 0.826 | 0.346 | 0.39 | 0.398 | 0.364 | 0.466 |
| NCI-H322M | 0.92 | 0.948 | 1.02 | 1.07 | 1.11 | 0.479 | 0.462 | 0.306 | 0.327 | 0.223 | 0.878 | 0.689 | 0.632 | 0.53 | 0.344 | 0.594 | 0.624 | 0.681 | 0.669 | 0.573 |
| NCI-H661 | 0.796 | 0.764 | 0.865 | 0.732 | 0.778 | 0.374 | 0.35 | 0.314 | 0.351 | 0.35 | 0.775 | 0.667 | 0.724 | 0.605 | 0.464 | 0.934 | 0.962 | 0.877 | 0.911 | 0.907 |
| NCI-H2228 | 0.953 | 0.809 | 0.633 | 0.552 | 0.737 | 0.329 | 0.235 | 0.334 | 0.211 | 0.131 | 0.915 | 0.691 | 0.726 | 0.291 | 0.246 | 0.369 | 0.334 | 0.336 | 0.354 | 0.341 |
| NCI-H1395 | 0.679 | 0.754 | 0.588 | 0.635 | 0.747 | 0.677 | 0.667 | 0.666 | 0.84 | 0.609 | 0.478 | 0.431 | 0.434 | 0.49 | 0.46 | 0.925 | 0.842 | 0.822 | 0.887 | 0.912 |
| NCI-H520 | 0.713 | 0.849 | – | 0.579 | 0.796 | 0.448 | 0.414 | 0.384 | 0.491 | 0.338 | 0.366 | 0.316 | 0.322 | 0.301 | 0.255 | 0.75 | 0.664 | – | 0.64 | 0.755 |
| NCI-H441 | 0.881 | 0.637 | 0.748 | 0.731 | 0.948 | 0.715 | 0.69 | 0.667 | 0.475 | 0.36 | 0.555 | 0.512 | 0.539 | 0.445 | 0.394 | 0.258 | 0.262 | 0.27 | 0.236 | 0.236 |
